We go through one molecule from patent publication US12534477B2, “Compound having KHK inhibitory effect” (HANGZHOU ZHONGMEIHUADONG PHARMACEUTICAL CO., LTD., priority 2019, dated 2026).

pIC50: −log10 of the molar value. Read-outs that look alike come from different tables or passages of the source.

Series [1] is described as follows: Liver-blood ratio, tissue distribution in rats. In kind it is in vivo, SD rats. As to conditions: PO 1 mpk; for concentration at 6 h: read-out: Brain tissue concentration; for concentration at 1.5 h: read-out: Liver tissue concentration. As to the method: Tissue distribution of compounds in SD rats was tested.
In the experiment, candidate compounds were formulated as clear solutions and administered to rats in a single oral dose (PO, 1 mpk). The vehicle for oral administration was a certain proportion of methylcellulose and Tween 80 in water. Whole blood was collected at a certain time and plasma was prepared, and tissues were collected at the corresponding time and prepared into tissue homogenates. Drug concentration was analyzed by LC-MS/MS, and pharmacokinetic parameters were calculated by Phoenix WinNonlin software.

In another series the target is CYP2C19 (Homo sapiens (Human), UniProt P33261). Nature of the series: Inhibitory activity on human liver microsomal cytochrome P450 isozymes. Format: in vitro ADME. As to conditions: human liver microsomes. As to the method: (§1) The inhibitory effect of test compounds on the activity of human hepatic microsomal cytochrome P450 isozymes (CYP1A2, CYP2C9, CYP2C19, CYP2D6 and CYP3A4) was determined.
Chain of CYP2C19 (P33261 whole entry): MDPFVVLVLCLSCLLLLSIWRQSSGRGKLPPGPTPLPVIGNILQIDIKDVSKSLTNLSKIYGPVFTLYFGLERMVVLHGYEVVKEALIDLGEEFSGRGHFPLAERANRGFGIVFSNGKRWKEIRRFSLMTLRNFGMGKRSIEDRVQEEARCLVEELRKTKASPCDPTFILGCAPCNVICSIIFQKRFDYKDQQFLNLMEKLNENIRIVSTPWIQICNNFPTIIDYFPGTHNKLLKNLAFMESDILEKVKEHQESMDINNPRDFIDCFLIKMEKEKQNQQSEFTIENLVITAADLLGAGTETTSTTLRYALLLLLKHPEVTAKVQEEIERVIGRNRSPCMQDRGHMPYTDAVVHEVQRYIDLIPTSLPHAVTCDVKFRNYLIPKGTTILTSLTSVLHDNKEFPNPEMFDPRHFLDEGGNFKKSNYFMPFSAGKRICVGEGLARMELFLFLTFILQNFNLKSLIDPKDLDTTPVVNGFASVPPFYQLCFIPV
(§2) First, the test compound (10 mM) was diluted in gradient to prepare working solutions (100×final concentration) with working solution concentrations: 5, 1.5, 0.5, 0.15, 0.05, 0.015, 0.005 mM, respectively, and at the same time, working solutions of each positive inhibitor of P450 isozymes (CYP1A2, CYP2C9, CYP2C19, CYP2D6 and CYP3A4) and its specific substrate mixture were prepared. Human liver microsomes frozen in a −80° C. refrigerator were thawed on ice, and diluted with PB (phosphate buffer) after all the human liver microsomes were dissolved, to prepare a working solution at a certain concentration (0.253 mg/mL). 20 μl substrate mixture was added to the reaction plate (20 μL PB was added to the Blank wells) while 158 μL human liver microsome working solution was added to the reaction plate which was placed on ice for later use. At this time, 2 μL of each concentration of the test compound (N=1) and the specific inhibitor (N=2) were added to the corresponding wells, and the corresponding organic solvents were added to the groups without inhibitors (the test compound or the positive inhibitor) as control samples (1:1 DMSO:MeOH for the test compound control sample, and 1:9 DMSO:MeOH for the positive control sample). After pre-incubation in 37° C. water bath for 10 min, 20 μL coenzyme factor (NADPH) solution was added to the reaction plate, and incubated in 37° C. water bath for 10 min. 400 μL cold acetonitrile solution (200 ng/mL Tolbutamide and Labetalol as the internal standard) was added to stop the reaction. The reaction plate was placed on a shaker and shaken for 10 min. The mixture was centrifuged at 4,000 rpm for 20 min, and 200 μl the supernatant was added to 100 μL water for sample dilution. Finally, the plate was sealed, shaken, mixed well and detected by LC/MS/MS.
On the technique in general: Liver microsomes are a subcellular fraction often used to study metabolism.

In another series the target is CYP3A4 (Homo sapiens (Human), UniProt P08684). The series is described as above. Format: in vitro ADME. As to conditions: human liver microsomes. As to the method: as §1, §2
Chain of CYP3A4 (P08684 whole entry): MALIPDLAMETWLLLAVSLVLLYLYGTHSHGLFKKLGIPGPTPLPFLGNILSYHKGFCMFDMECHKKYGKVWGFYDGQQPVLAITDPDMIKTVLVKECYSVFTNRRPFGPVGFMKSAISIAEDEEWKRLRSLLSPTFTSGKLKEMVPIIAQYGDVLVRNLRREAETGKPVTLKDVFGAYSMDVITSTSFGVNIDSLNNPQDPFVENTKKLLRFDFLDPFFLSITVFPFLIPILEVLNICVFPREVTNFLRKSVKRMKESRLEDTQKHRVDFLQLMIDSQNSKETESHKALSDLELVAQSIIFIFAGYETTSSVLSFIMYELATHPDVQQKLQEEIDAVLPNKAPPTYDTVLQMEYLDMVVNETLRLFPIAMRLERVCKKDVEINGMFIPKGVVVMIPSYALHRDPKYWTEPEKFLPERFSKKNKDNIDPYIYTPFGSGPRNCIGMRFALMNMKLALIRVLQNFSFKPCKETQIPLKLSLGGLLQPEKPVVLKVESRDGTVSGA
Another series deals with CYP2D6 (Homo sapiens (Human), UniProt P10635). The description is as above. As to conditions: human liver microsomes. In kind it is in vitro ADME. As to the method: as §1, §2
Chain of CYP2D6 (P10635 whole entry): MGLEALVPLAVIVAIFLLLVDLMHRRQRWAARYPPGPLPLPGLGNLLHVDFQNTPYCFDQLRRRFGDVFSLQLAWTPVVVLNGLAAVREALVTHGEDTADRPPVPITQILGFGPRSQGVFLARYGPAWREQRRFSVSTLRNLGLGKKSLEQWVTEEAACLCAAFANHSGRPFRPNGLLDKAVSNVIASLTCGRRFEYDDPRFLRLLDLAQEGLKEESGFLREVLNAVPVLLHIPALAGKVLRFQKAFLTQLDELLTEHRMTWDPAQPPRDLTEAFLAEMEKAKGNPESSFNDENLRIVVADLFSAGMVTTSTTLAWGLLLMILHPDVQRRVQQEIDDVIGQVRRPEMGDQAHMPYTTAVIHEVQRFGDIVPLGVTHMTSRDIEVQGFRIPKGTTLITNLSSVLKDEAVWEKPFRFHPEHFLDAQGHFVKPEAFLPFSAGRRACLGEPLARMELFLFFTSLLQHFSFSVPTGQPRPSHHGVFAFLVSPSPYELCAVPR
For a further series, the target named is CYP2C9 (Homo sapiens (Human), UniProt P11712). The description is as above. In kind it is in vitro ADME. Conditions: human liver microsomes. As to the method:
as §1, §2

A further series addresses CYP1A2 (Homo sapiens (Human), UniProt P05177). In kind it is in vitro ADME. As to conditions: microsomes. As to the method:
as §1, §2

Series [2] in a line: Pharmacokinetic evaluation in SD rats. Format: in vivo. As to conditions: rat, plasma. As to the method:
In vivo pharmacokinetics of compounds in SD rats were tested.
Pharmacokinetic profiles in rodents following intravenous and oral administration of the compounds were tested by standard protocols. In the experiment, candidate compounds were formulated as clear solutions or homogeneous suspensions, and were administered to rats by single intravenous injection (IV, 1 mpk) and oral administration (PO, 3 mpk). The vehicle for intravenous injection was a certain proportion of PEG400 in water, and the vehicle for oral administration was a certain proportion of methylcellulose and Tween 80 in water. Whole blood was collected, and plasma was prepared. Drug concentration was analyzed by LC-MS/MS, and pharmacokinetic parameters were calculated by Phoenix WinNonlin software.

Series [3] relates to fructose metabolism in mice. In words: Acute fructose feeding experiment in mice. In kind it is in vivo. As to conditions: compound 30 mpk, oral fructose 1 g/kg. On the procedure:
The effect of test compounds on the fructose content in mice with high fructose intake was investigated.
All animals were acclimated for one week in an animal house, fed with normal chow and fasted for 16 hours before being given fructose.
1) The experiment began at −0.5 hr. A control group was given a certain volume of vehicle (a certain proportion of methylcellulose and Tween 80 in water), and an experimental group was given a certain dose of a solution of the compound (the administered volume was consistent with the vehicle).
2) 0.5 hour later and before administration of a fructose solution, a blood sample was collected at 0 hr, followed by oral administration of 1 g/kg of an aqueous fructose solution.
3) After the administration of fructose, blood samples were collected from saphenous vein of mice at 0.25, 0.5, 1, 2, 3 and 8 hr, and fructose concentration was analyzed by LC-MS/MS.

Chain of CYP1A2 (P05177 whole entry): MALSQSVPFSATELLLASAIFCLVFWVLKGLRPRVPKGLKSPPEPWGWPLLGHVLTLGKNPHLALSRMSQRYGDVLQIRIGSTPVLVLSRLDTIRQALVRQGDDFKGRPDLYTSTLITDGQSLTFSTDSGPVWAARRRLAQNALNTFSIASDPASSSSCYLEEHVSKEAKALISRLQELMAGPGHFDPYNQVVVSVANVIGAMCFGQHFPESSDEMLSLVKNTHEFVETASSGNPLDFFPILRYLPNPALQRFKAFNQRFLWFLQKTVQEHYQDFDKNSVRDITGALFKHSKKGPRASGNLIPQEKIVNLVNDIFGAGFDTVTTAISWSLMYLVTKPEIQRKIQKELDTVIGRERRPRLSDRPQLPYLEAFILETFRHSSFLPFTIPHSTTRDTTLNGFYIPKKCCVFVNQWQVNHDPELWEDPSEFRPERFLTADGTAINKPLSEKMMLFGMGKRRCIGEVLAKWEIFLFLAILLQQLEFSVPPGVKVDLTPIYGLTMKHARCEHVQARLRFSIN
Chain of CYP2C9 (P11712 whole entry): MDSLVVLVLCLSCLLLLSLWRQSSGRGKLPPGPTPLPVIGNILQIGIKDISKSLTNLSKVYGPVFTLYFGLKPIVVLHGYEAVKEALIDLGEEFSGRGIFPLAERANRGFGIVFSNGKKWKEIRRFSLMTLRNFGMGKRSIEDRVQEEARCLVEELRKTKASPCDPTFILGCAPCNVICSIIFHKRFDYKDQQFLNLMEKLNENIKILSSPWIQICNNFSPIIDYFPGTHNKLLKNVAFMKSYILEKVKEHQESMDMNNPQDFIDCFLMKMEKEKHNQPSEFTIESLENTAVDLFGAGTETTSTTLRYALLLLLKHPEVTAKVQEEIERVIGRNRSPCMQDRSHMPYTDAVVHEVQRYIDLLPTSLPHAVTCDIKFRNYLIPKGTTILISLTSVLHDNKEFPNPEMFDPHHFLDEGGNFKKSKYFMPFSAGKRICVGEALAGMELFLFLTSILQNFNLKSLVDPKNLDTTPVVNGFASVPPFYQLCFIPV

For `C[C@H]1CCN1c1nc(N2CC3(C[C@H]3C(=O)O)C2)c2c(n1)C(F)(F)CC2` [WX043], the values for the Brain-blood ratio in series [1] (1.5 h) and in series [1] (2.0 h) were 0.016 and 0.014, respectively. The Liver-blood ratio was 20.0 in series [1] (1.5 h), 30.0 in series [1] (2.0 h) and 81.5 in series [1] (6.0 h). Further, the Plasma concentration in series [1] (1.5 h) amounted to 2025 nM; in series [1] (2.0 h) it was 916 nM; in series [1] (6.0 h) it was 246 nM. Also, the concentration at 6 h in series [1] (1.5 h) is 30.6 nM; in series [1] (2.0 h), 13.1 nM. The concentration at 1.5 h is 38250 nM in series [1] (1.5 h), 27800 nM in series [1] (2.0 h) and 19800 nM in series [1] (6.0 h). In addition, the negative-log IC50 (pIC50) on CYP2C19, on CYP3A4, against CYP2D6, against CYP2C9 and against CYP1A2 was below 4.30 each time. Moreover, in series [2] (1 mg/kg, IV 1 mpk, read-out: Clearance rate), the clearance (as a rule, a measure of how efficiently the substance is removed, as volume per time) was determined as 5.37 mL/min/kg. For the same molecule, the AUC in series [2] (3 mg/kg, PO 3 mpk, read-out: Integral concentration AUC for PO) amounted to 12 µM·h. In series [2] (IV 1 mpk and PO 3 mpk study, read-out: Half-life T1/2 (converted)), the half-life was 5.83 h. In addition, the bioavailability (usually the share of a dose that reaches the circulation, judged against a reference dose that is usually intravenous) in series [2] (IV 1 mpk, PO 3 mpk, read-out: Bioavailability F) was found to be 70%. In series [3], the “AUC of integral fructose concentration for dosed group” value stood at 3504 nM·h. The “AUC of integral fructose concentration of dosed group/AUC of Integral fructose concentration of control group” value in series [3] was 13.3.
